Among the data in PubChem BioAssay AID179 (DTP/NCI, 2004) are outcome, EC50 and IC50 values, retold here.

The experiment relates to CEM cells HIV-1 protection, formazan growth assay. The experiment in a line: NCI AIDS Antiviral Assay. Particulars: for pIC50: measured here: growth of uninfected CEM cells. An outline of the steps:
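Screen of anti-HIV-1 activity in human CEM cells using a formazan-based growth measurement at five drug concentrations. Hits with 50% or greater protection were repeated, and confirmation required reproducible complete protection.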

pEC50, pIC50: −log10 of the molar value. Calls of active or inactive are those of the source.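 How the source made its calls: active means compounds giving half or more protection of infected cells from virus-caused growth loss, again on retest; inactive means the rest.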

Consider `CC(C)(C)c1cc(Cc2ccc([N+](C)(C)C)cc2)c(O)c(C(C)(C)C)c1`, for which the result was inactive.

With `O=C1CC(c2ccc(Cl)cc2)NC(=O)N1CCCl` (stereo unspecified), the pEC50 was below 3.70 and the pIC50 is below 3.70. For `N#CC1=C(N)N(c2ccccc2)C(c2ccco2)C1(C#N)C#N` (stereo unspecified), the pEC50 is below 3.70 and the pIC50 was 5.00. For `CCCCCCCNC(=S)N/N=C/c1ccccc1O`, in that order: below 3.70 and 4.98. For `Cc1cc(N=Nc2ccc(Sc3ccc(N=Nc4ccc(O)c(C(=O)O)c4)cc3)cc2)c(N)c(N=Nc2ccc(N=Nc3ccc(S(=O)(=O)O)cc3)cc2)c1N`, the pEC50 is 5.25 and the pIC50 was below 4.00.

Regarding `O=[N+]([O-])c1c(F)c(F)c2c(c1F)Nc1ccccc1S2`, the pEC50 was below 3.70 and the pIC50 is 5.52.

As to `COc1ccc(C(CC(=O)C(C)(C)CN2CCCCC2)SCCS(=O)(=O)O)cc1` (stereo unspecified), the pEC50 is below 3.70 and the pIC50 was 4.88.

With `CC(C)(C)OC(=O)CC(NC(=O)OC(C)(C)C)C(=O)Oc1ccc([N+](=O)[O-])cc1` (stereo unspecified), the pEC50 was below 3.70 and the pIC50 was below 3.70. For `CC(C)=CC(=O)N1CC(C)Cn2c(=S)[nH]c3cccc1c32` (stereo unspecified), the pEC50 was below 3.70 and the negative-log IC50 (pIC50) is below 3.70.

Take `Cc1ccc(SC(=O)N2C(=S)NC(=NC3CCCCC3)C23CCCCC3)cc1`: the pEC50 was below 3.70 and the negative logarithm of the IC50 (pIC50) was 4.49. As to `Cc1ccc(N=Nc2c(N)nn3cc4c(nc23)CCC4)cc1`, the pEC50 was below 3.70 and the pIC50 is below 3.70.

Consider `COc1cc(O)c(/C=N\O)c(OC)c1`, for which the pEC50 was below 3.04 and the pIC50 was 4.08. The matching figures for `CCc1cccc(C(C)CC)c1N=C(NC(=O)c1ccccc1C(=O)NC(=Nc1c(CC)cccc1C(C)CC)SC)SC` (stereo unspecified): below 4.25 and below 4.25. For `COc1cc(CNC2=NCCC2)cc(OC)c1OC`, in that order: below 3.70 and 4.32. For the compound `O=C1C2C(C(=O)N1c1ccccc1)C1(Br)c3ccccc3C2(Br)C2C(=O)N(c3ccccc3)C(=O)C21` (stereo unspecified), the outcome was inactive. On to `COC(=O)C(CCC(=O)O)N1C(=O)c2ccccc2C1=O` (stereo unspecified), for which the pEC50 was below 3.70 and the negative-log IC50 (pIC50) was below 3.70.

`O=C(O)C1SCCS1`: the pEC50 is below 3.70 and the negative-log IC50 (pIC50) is below 3.70.

With `O=S1CCS(=O)CCS(=O)CC1` (stereo unspecified), the pEC50 was below 4.78 and the pIC50 is below 4.78. As for `Cc1nc2[nH]c(=S)[nH]c(=O)c2[nH]c1=O`, the pEC50 is below 3.70 and the pIC50 was below 3.70.

As for `Cc1nc2ccccc2c(=O)n1-c1nc2ccccc2s1`, the pEC50 is below 3.70 and the pIC50 was 4.50.

In the case of `CCOC(=O)[C@@H]1[C@@H](c2ccccc2)N(C)O[C@@]1(c1ccccc1)C(F)(F)F`, the pEC50 is below 3.70 and the negative logarithm of the IC50 (pIC50) is 4.32. The matching figures for `O/N=C1/CCCCC1NO` (stereo unspecified): below 3.70 and 3.93. `O=c1[nH]c2cc(Cl)ccc2nc1/C(=N\O)C(O)c1ccc([N+](=O)[O-])cc1` (stereo unspecified): the outcome was inactive. `O=C(O)c1cccc(P(=O)(O)O)c1`: the pEC50 is below 3.70 and the pIC50 is below 3.70. With `NC(=O)CCCC(NCc1c2ccccc2nc2ccccc12)C(=O)O` (stereo unspecified), the outcome was inactive. For `Cn1c(O)c(N=NC(N)=S)c2ccccc21`, the pEC50 was below 3.70, the result was inactive and the pIC50 was 3.73. Consider `CC1C(=O)c2c(O)cc(O)cc2O[C@@H]1C` (stereo partly specified), for which the pEC50 was below 3.70 and the negative logarithm of the IC50 (pIC50) is below 3.70.

Take `Cc1cc(S(=O)(=O)N2CCNC2=O)c(S)cc1Cl`: the pEC50 is 4.05 and the negative logarithm of the IC50 (pIC50) was 3.60. For `CCOC(=O)NC(Nc1ccc(C(=O)O)cc1)(C(F)(F)F)C(F)(F)F`, in that order: below 3.70 and below 3.70.

Regarding `CC1=C/C(=N\O)C(C(O)(C(F)(F)F)C(F)(F)F)C(C)(C)C1` (stereo unspecified), the pEC50 was below 3.70 and the negative-log IC50 (pIC50) is 3.87. On to `CCCc1cc(-c2ccc(N=Nc3cc(S(=O)(=O)O)c4ccccc4c3N)c(CCC)c2)ccc1N=Nc1cc(S(=O)(=O)O)c2ccccc2c1N`, for which the pEC50 was 3.98 and the pIC50 was 3.74. As to `CCn1c(=S)[nH]c2sc3c(c2c1=O)CCCCC3`, the pEC50 was below 3.97 and the negative logarithm of the IC50 (pIC50) is 4.66. Take `Cc1ccc(-n2c(Cn3nnc(-c4cccnc4)n3)nn(C3OC(COC(=O)c4ccccc4)C(OC(=O)c4ccccc4)C3OC(=O)c3ccccc3)c2=S)cc1C` (stereo unspecified): the pEC50 was below 4.00 and the negative-log IC50 (pIC50) is below 4.00. `Nc1ccc2c(c1)[O][Sn]([c]1ccccc1)([c]1ccccc1)[O]C2=O`: the outcome was inactive. Turning to `COc1cccc(/C=C2\SC(=S)N(/C=C3\C(=O)Oc4ccccc4C3=O)C2=O)c1O`, the pEC50 was below 3.70 and the negative-log IC50 (pIC50) was 4.15. For `COCC(=O)C1CC[C@@H]2[C@H](CC[C@]3(C)[C@@H](OC(C)=O)CC[C@@H]23)[C@H]1C(=O)OC` (stereo partly specified), in that order: below 4.30 and below 4.30. For `O=[N+]([O-])c1nccn1CC1OC(n2ccnc2[N+](=O)[O-])C(O)C(O)C1O` (stereo unspecified), the pEC50 is below 3.70 and the pIC50 is below 3.70.

In the case of `O=c1cc(O)c2c(ccc3ccccc32)[nH]1`, the pEC50 is below 3.70 and the negative logarithm of the IC50 (pIC50) is below 3.70. Turning to `CC(=O)C1=C(C)NC(C)=C(C(C)=O)C1c1cccc([N+](=O)[O-])c1`, the pEC50 was 3.74 and the pIC50 is below 3.70. With `COC(=O)c1cc2nc(NC(C)=O)sc2n1C`, the pEC50 was below 3.70 and the pIC50 was below 3.70. In the case of `CCOC(=O)C(=CNC(Cc1c[nH]c2ccccc12)C(=O)OC)C(=O)OCC` (stereo unspecified), the outcome was inactive. Take `CC(=O)Nc1ncc([N+](=O)[O-])s1`: the pEC50 was below 3.70 and the pIC50 is below 3.70. As to `O=C(NC(=O)c1ccccc1)OC(c1ccccc1)C1CO1` (stereo unspecified), the pEC50 was below 3.70 and the pIC50 was below 3.70. Regarding `C[C@@]1(CO)[C@H](O)CC[C@@]2(C)[C@H]1CC[C@H]1C[C@@H]3C[C@@]12CC[C@@]3(O)COC(=O)CN`, the pEC50 was below 3.24 and the pIC50 was 6.48. For `OCC12C=CC(C1)c1ccccc12` (stereo unspecified), in that order: below 3.60 and below 3.60. In the case of `Cc1ccc(S(=O)(=O)ON2C(=O)c3c(N)c(C#N)c(-c4ccccc4)c(-c4ccccc4)c3C2=O)cc1`, the pEC50 is below 3.70 and the pIC50 is 5.42.

For the compound `O=c1c2c3c(sc2nc2n1N=C(c1ccc(Br)cc1)CS2)CCCC3`, the pEC50 is below 3.70 and the negative-log IC50 (pIC50) is below 3.70. Take `O=C1CC2C(C1Nc1ccccc1)C1C(=Nc3ccccc3)C(Nc3ccccc3)=CC1N2c1ccccc1` (stereo unspecified): the pEC50 was below 4.99 and the pIC50 was below 4.99. Take `CCCCCCOc1ccc(C(=O)N(C)O)cc1`: the pEC50 is below 3.70 and the negative logarithm of the IC50 (pIC50) was 4.94.

Turning to `C=C(C)C1CCC(C(=O)O)CC1` (stereo unspecified), the pEC50 was below 3.70 and the negative logarithm of the IC50 (pIC50) was below 3.70. On to `Cc1ccc(S(=O)(=O)N2CCc3cc(O)c([N+](=O)[O-])cc32)cc1`, for which the pEC50 was below 3.70 and the pIC50 was below 3.70.

Take `CCCC(O)[C@@H](O)c1ccc2c(c1O)C(=O)c1c(OC)cccc1C2=O` (stereo partly specified): the result was inactive. Still for that read-out and setting: next, `CN=c1ssc(/N=C(\SC)N(C)C)[n+]1C`: “inactive”.

Consider `COc1ccccc1NC(=O)C1=C(C)NC(C)=C(C(=O)Nc2ccccc2OC)C1c1ccccc1[N+](=O)[O-]`, for which the pEC50 is below 4.87 and the pIC50 was below 4.87.

With `COc1cc(/C=C2/C(=O)N(C(=O)c3ccccc3O)N=C2C)cc(OC)c1OC`, the pEC50 is below 4.32 and the negative-log IC50 (pIC50) is 6.62. Turning to `CC(=O)Nc1ccc(/C=C2\C(=O)NC(=S)N2/C=C(\C#N)c2ccc([N+](=O)[O-])cc2)cc1`, the pEC50 is below 3.70 and the pIC50 was 4.14. The matching figures for `O=C1C=C2CCN(C(=O)c3ccccc3)CC2O1` (stereo unspecified): below 3.70 and below 3.70. For the compound `c1ccc(N=C2SC(c3ccccc3)CN2C23CC4CC(CC(C4)C2)C3)cc1` (stereo unspecified), the pEC50 is below 3.70 and the pIC50 is below 3.70. Consider `N#Cc1ccc(Cc2ccccn2)cc1Cl`, for which the result was inactive. On to `CC(C)OC(=O)[C@H]1ON2O[C@H](O[C@@H]3CCCC[C@H]3c3ccccc3)C([Si](C)(C)c3ccccc3)[C@H]3OC(=O)[C@@H]1C32` (stereo partly specified), for which the pEC50 is below 3.70 and the pIC50 was 3.80. The matching figures for `CCOC(=O)C1(C#N)C(c2ccccc2)CC(O)(c2ccc(Cl)cc2)C(C(=O)c2ccc(Cl)cc2)C1c1ccccc1` (stereo unspecified): below 4.92 and below 4.92.

As to `Nn1c(N=Nc2c(O)[nH]c3c(Cl)cc(Cl)cc23)n[nH]c1=S`, the pEC50 is below 4.85 and the negative logarithm of the IC50 (pIC50) was below 4.85. Turning to `C=CCN1C(N)=C(C#N)C(C#N)(C#N)C1CCC` (stereo unspecified), the pEC50 was below 3.70 and the pIC50 was 3.82.

With `CCc1nc2cc(F)ccc2[nH]c1=O`, the pEC50 was below 3.70 and the pIC50 was 3.88. The matching figures for `CN(C)CCc1ccnc2nc(-c3ccc4ccccc4c3)cn12`: below 3.70 and 4.49.

Turning to `O=C1NC(=O)c2c1c1cnn(-c3ccccc3)c1n1cccc21`, the pEC50 was below 4.13 and the pIC50 is below 4.13. In the case of `CN=C(NC)c1ncn(C2OC(CO)C(O)C2O)n1` (stereo unspecified), the result was inactive.

Take `C=C=C(C(=O)OC)S(=O)c1ccccc1[N+](=O)[O-]` (stereo unspecified): the result was inactive.

For `CN(C)CCNC(=O)c1cccc(CO)c1[N+](=O)[O-]`, the pEC50 is below 3.70 and the pIC50 is below 3.70. Turning to `N#C/C(=C\c1cc2ccccc2c2ccccc12)c1ccccc1`, the pEC50 is below 4.91 and the negative-log IC50 (pIC50) was 5.19.

Take `O=c1[nH]c2ccccc2c(=O)n1/N=C/c1ccc(Cl)cc1`: the pEC50 is below 3.70 and the pIC50 was below 3.70. For the compound `Oc1cc(-c2ccc(Cl)cc2)cn2c1nc1ccccc12`, the pEC50 was below 3.70 and the pIC50 was 5.01. The matching figures for `Cc1ccc(-n2[nH]nc(C#N)c2=O)cc1`: below 3.70 and below 3.70.
